The values below are quoted from earlier work in the CATMoS acute toxicity set (Mansouri et al. 2021).

Each structure is given as a SMILES string. Several values for one entry are separate records, joined by “and”; a condition that tells them apart may be missing. Equal values may be shown once.

As usually defined, the LD50 is the dose at which mortality reaches 50%.

A short description of the data set: rat acute oral toxicity. To be noted: in vivo. The text has this: […]The data set underlying the modeling effort for this project was initially compiled by NICEATM and U.S. EPA’s CCTE. Briefly, LD50 data were collected from rat acute oral systemic toxicity tests, including limit tests, ranges/confidence intervals, and discrete LD50 values. The full data set included 21,200 LD50 entries for 15,688 substances. […] Data were reviewed to ensure that LD50 values with obvious errors in the extracted data such as unit conversion errors (e.g., comma and decimal separator misplacements) were either fixed or removed. After this review, 16,209 LD50 values remained. Many of the chemicals represented had multiple LD50 entries, requiring that a single representative value per Chemical Abstracts Service Registry Number (CASRN) identifier be defined to facilitate modeling efforts. Based on ATWG feedback and to define the representative LD50 as a protective value while accounting for the distribution across multiple LD50s, the median of the lowest quartile was computed using only discrete LD50 values (omitting limit test data and range and confidence interval data). A detailed summary of the data compilation is available online on the NICEATM webpage dedicated to the collaborative modeling project (NTP 2020).
[…][…] For categorical designations, limit test and range/confidence interval LD50 data were integrated wherever possible. As such, the number of chemicals with end point values/calls varies across the modeling end points (Table 3) based on whether chemicals had representative LD50 values and/or other data. If a chemical had both, the representative value was used to determine categorical calls rather than limit test data. Some data were useable only for certain end points and categories depending on the thresholds. For example, ranges that spanned multiple hazard categories were considered only for the binary (very toxic/nontoxic) end points and omitted from rendering a determination for hazard category assignment.
[…]The final data set comprising 11,992 chemicals was split into training and evaluation sets […], respectively. This process was performed semirandomly by ordering chemicals based on the five end points (categorical and continuous LD50 values) and partitioning every fourth record into the evaluation set accordingly. This approach was taken to ensure an equivalent distribution of the LD50 values and the different hazard categories between the training and the evaluation sets without supervised sampling of the chemicals based on structures (Figure 1A). The sources of the chemical structures were also kept equivalent between the two sets, with chemical structures obtained from DSSTox, being the highest quality, representing over 75% of each set (Figure 1B).
In the case of `COP(=S)(OC)SC(C(=O)OC(C)C)c1ccccc1` (configuration not stated), the LD50 is 205 mg/kg.

Consider `CC(C(=O)O)c1ccc2c(c1)C(=O)Cc1ccccc1O2` (configuration not stated), for which the LD50 was 106 mg/kg.

Consider `C[Si](C)(C)CCC(=O)O`, for which the LD50 is 3000 mg/kg.

Consider `CCOP(=O)(OCC)SCC(=O)NC(C)(C)C#N`, for which the LD50 is 3.5 mg/kg.

On to `CCC(C)(N)C#N` (configuration not stated), for which the LD50 was 74 mg/kg.

`COc1ccnc(CS(=O)c2nc3cc(OC(F)F)ccc3[nH]2)c1OC` (configuration not stated): the LD50 was 747 mg/kg.

Consider `CCOP(=O)(Cc1ccc(-c2nc3ccccc3s2)cc1)OCC`, for which the LD50 is 1560 mg/kg.

Consider `CNCCCC1c2ccccc2C=Cc2ccccc21`, for which the LD50 was 299 mg/kg and 240 mg/kg.

On to `CC1CSC(c2ccccc2OC(=O)N(C)C)S1` (configuration not stated), for which the LD50 is 140 mg/kg.

On to `CC1OCN=C(c2ccccc2)S1` (configuration not stated), for which the LD50 is 655 mg/kg.

Take `CCOC(=O)CCC(=O)CC1(O)C2(Cl)C3(Cl)C4(Cl)C(Cl)(Cl)C5(Cl)C3(Cl)C1(Cl)C5(Cl)C42Cl` (configuration not stated): the LD50 was 240 mg/kg.

For `COP(=S)(OC)SCSc1cc(Cl)ccc1Cl`, the LD50 is 220 mg/kg.

Take `N#CC(N=Nc1ccc(C(F)(F)F)cc1)=NNc1ccc(C(F)(F)F)cc1`: the LD50 was 613 mg/kg.

On to `COc1ccc(C(OC)C2CCCCC2N2CCCCC2)cc1` (configuration not stated), for which the LD50 was 92 mg/kg.

As for `CNC(=O)C(C)SCCSP(=O)(OC)OC` (configuration not stated), the LD50 was 64 mg/kg.

As for `CCOC(=O)Nc1ccc2c(c1)N(C(=O)CN(C)C)c1ccccc1CC2`, the LD50 was 78 mg/kg.

Consider `NCCCCCCC(=O)O`, for which the LD50 is 9000 mg/kg.

On to `CC(C)c1ccc2c(c1)CC[C@H]1[C@](C)(C(=O)O)CCC[C@]21C`, for which the LD50 was 1710 mg/kg.

For the compound `CCCCP(CCCC)CCCC`, the LD50 is 750 mg/kg.

Consider `CON=C(Cc1cccnc1)c1ccc(Cl)cc1Cl`, for which the LD50 is 1700 mg/kg.

For `CCN(CC)S(=O)(=O)c1ccc(OP(=S)(OC)OC)cc1Cl`, the LD50 was 50 mg/kg.

As for `COP(N)(=S)SC` (configuration not stated), the 50% lethal dose (LD50) was 250 mg/kg.

On to `Clc1ccc(CSC(Cn2ccnc2)c2ccc(Cl)cc2Cl)cc1` (configuration not stated), for which the LD50 was 1740 mg/kg.

Turning to `COP(=S)(OC)Oc1ccc(C#N)cc1C`, the LD50 was 500 mg/kg.

In the case of `Nc1ccc(C(F)(F)F)c(NC(=O)c2cccnc2)c1`, the LD50 is 800 mg/kg.

In the case of `O=C(NP(=O)(N1CC1)N1CC1)c1ccccc1`, the LD50 was 50 mg/kg.

With `CCC(C)(O)CCc1ccccc1` (configuration not stated), the LD50 was 2950 mg/kg.

In the case of `ClC1=C(Cl)[C@]2(Cl)[C@@H]3[C@@H](Cl)[C@H](Cl)[C@@H](Cl)[C@@H]3[C@@]1(Cl)C2(Cl)Cl` (racemic), the LD50 is 500 mg/kg.

With `Cc1cc(CCN2CCN(c3cccc(Cl)c3)CC2)n[nH]1`, the LD50 is 570 mg/kg.

Consider `CCOc1ccc([N+](=O)[O-])cc1CNCCO`, for which the LD50 is 25 mg/kg.

Take `CCCCC(CC)CCC(CC(C)C)OS(=O)(=O)O` (configuration not stated): the LD50 was 1250 mg/kg.

With `CCN(CC)c1ccc(C=O)cc1`, the LD50 was 6400 mg/kg.

`C[C@H](NC(=O)[C@H](C)NC(=O)[C@@H](N)CCP(C)(=O)O)C(=O)O`: the 50% lethal dose (LD50) is 268 mg/kg.

With `C=CSC=C`, the LD50 is 170 mg/kg.

For the compound `COc1ccccc1N1CCN(CCCNc2cc(=O)n(C)c(=O)n2C)CC1`, the LD50 was 520 mg/kg.

On to `O=[N+]([O-])c1ccc(O)c(CNCCO)c1`, for which the LD50 is 23 mg/kg.

Take `CC(=O)Nc1ccc(-c2ccc(N)cc2)cc1`: the LD50 is 1630 mg/kg.

Regarding `Cn1c([N+](=O)[O-])cnc1COC(N)=O`, the LD50 was 3400 mg/kg.

For `FC(F)(F)c1nc2c(Cl)c(Br)c(Br)c(Cl)c2[nH]1`, the 50% lethal dose (LD50) was 3.43 mg/kg.

As to `O=C(O)C1C(C(=O)O)C2(Cl)C(Cl)=C(Cl)C1(Cl)C2(Cl)Cl` (configuration not stated), the LD50 was 1770 mg/kg.

With `c1ccc(C2=NCOCS2)cc1`, the LD50 was 650 mg/kg.

For the compound `CCCCCCCCCCCCCCCCCC(=O)NCCC[N+](C)(C)CCO`, the LD50 was 8100 mg/kg.

`CC(C)COP(=S)(S)OCC(C)C`: the LD50 is 3000 mg/kg.

Turning to `Nc1ccc(Cl)cc1Cl`, the LD50 is 1600 mg/kg.

For the compound `CCCCCCCCCCCCOCCOCCOCCOS(=O)(=O)O`, the LD50 is 1820 mg/kg.

As for `NC(=O)c1ccc([N+](=O)[O-])cc1`, the LD50 is 476 mg/kg.

Take `OC1CCN(c2ccc(-c3ccc(Cl)cc3Cl)nn2)CC1`: the LD50 was 300 mg/kg.

As to `CCC(=O)Nc1ncc(Cl)s1`, the LD50 is 316 mg/kg.

With `CN(C)N=Nc1nc[nH]c1C(N)=O`, the LD50 is 2150 mg/kg.

For `c1ccc(-c2ccc(C(c3ccccc3)n3ccnc3)cc2)cc1` (configuration not stated), the LD50 was 1460 mg/kg.

Turning to `CN1C(=O)CCS(=O)(=O)C1c1ccc(Cl)c(Cl)c1` (configuration not stated), the LD50 is 1050 mg/kg.

In the case of `OC[C@@H](O)[C@H]1O[C@@H]2O[C@H](C(Cl)(Cl)Cl)O[C@@H]2[C@H]1O`, the 50% lethal dose (LD50) was 400 mg/kg.

Turning to `Cc1nc(N)nc(N)c1-c1ccc(Br)cc1`, the LD50 is 250 mg/kg.

On to `CCCCCOc1cccc(NC(=O)O[C@@H]2CCCC[C@H]2N2CCCC2)c1`, for which the LD50 was 1030 mg/kg.

Regarding `COc1c(C(C)(C)C)cc([N+](=O)[O-])c(C)c1[N+](=O)[O-]`, the LD50 is 339 mg/kg.

Regarding `CC(=O)c1c(=O)cc(C)oc1=O`, the LD50 is 706 mg/kg.

Consider `CC(=O)OC[C@H]1O[C@@H](n2ncc(=O)[nH]c2=O)[C@H](OC(C)=O)[C@@H]1OC(C)=O`, for which the LD50 was 12000 mg/kg.

As for `COc1cc(C(F)(F)F)ccn1`, the LD50 was 1750 mg/kg.

Regarding `CNC(=O)ON=C1C(Cl)C2CC(C#N)C1C2` (configuration not stated), the LD50 is 24 mg/kg.

Take `C=C(C)C#N`: the LD50 was 120 mg/kg.

Consider `COS(=O)(=O)c1ccc(C)cc1`, for which the LD50 is 341 mg/kg.

Consider `O=S(=O)(O)c1cccc(Nc2nc(Nc3ccc(C=Cc4ccc(Nc5nc(Nc6cccc(S(=O)(=O)O)c6)nc(N(CCO)CCO)n5)cc4S(=O)(=O)O)c(S(=O)(=O)O)c3)nc(N(CCO)CCO)n2)c1`, for which the LD50 was 1960 mg/kg.

`Cc1cc(C)cc(C(=O)Cl)c1`: the LD50 was 3160 mg/kg.

`Cc1ncc(COP(=O)(O)O)c(C=O)c1O`: the LD50 is 5900 mg/kg.

`O=S(=O)(O)c1cccc2c(S(=O)(=O)O)cccc12`: the LD50 is 30000 mg/kg.

On to `FC(F)(F)c1nc2c(Cl)cc(I)cc2[nH]1`, for which the LD50 was 1.44 mg/kg.

On to `CC(=O)OC(C)C[N+](C)(C)C` (configuration not stated), for which the LD50 is 750 mg/kg.

For the compound `O=C(O)Cc1c(Cl)ccc(Cl)c1Cl`, the LD50 was 1780 mg/kg.

Turning to `CCOP(=O)(OC=C(Cl)Cl)OCCCl` (configuration not stated), the LD50 is 5 mg/kg.

As for `CC(CC(=O)OC(C)(C)C)=NNc1ccc(N2CCOCC2)nn1`, the LD50 was 970 mg/kg.

As for `Nc1ccc(F)cc1`, the LD50 was 417 mg/kg.

For the compound `Cn1c([N+](=O)[O-])cnc1/C=C/c1ccnc(N)n1`, the LD50 was 7600 mg/kg.

`COC(=O)C1CCc2cc(C3CCCCC3)ccc21` (configuration not stated): the LD50 was 410 mg/kg and 254 mg/kg.

In the case of `CCCCCCCCCCOCCCN(C(=O)CC(C(=O)O)S(=O)(=O)O)C(CC(=O)OCC)C(=O)OCC` (configuration not stated), the LD50 is 16200 mg/kg.

For `NS(=O)(=O)c1ccc2nc(C(F)(F)F)[nH]c2c1`, the LD50 is 21 mg/kg.

For the compound `Clc1ccc(N2N=N[C@@H]3[C@@H]4C[C@@H]([C@H]5N=N[C@@H]45)[C@@H]32)cc1`, the LD50 is 261 mg/kg.

As to `CC(C)CNC(=O)CF`, the LD50 is 42 mg/kg.

On to `CC1(C)COS(=O)(=O)OC1`, for which the LD50 is 10 mg/kg.

`OC(c1ccccc1)(c1ccccc1)C1CCCCN1` (configuration not stated): the LD50 was 180 mg/kg.

Take `NCCCNCCSP(=O)(O)O`: the LD50 was 826 mg/kg.

On to `O=C1c2ccccc2C(=O)C1c1c(Cl)cccc1Cl`, for which the LD50 was 470 mg/kg.

`CCOC(=O)NCCOc1ccc(Oc2ccccc2)cc1`: the LD50 was 16800 mg/kg.

In the case of `CC(=O)O[C@H]1C[C@@H]2CC[C@@H]3[C@H](CC[C@@]4(C)[C@H]3C[C@H]([N+]3(C)CCCCC3)[C@@H]4OC(C)=O)[C@@]2(C)C[C@@H]1N1CCCCC1`, the LD50 is 455 mg/kg.

Turning to `CNC(=O)Oc1ccc(CCC#N)cc1`, the LD50 is 620 mg/kg.

Take `CN(C)CCCn1c2ccccc2c(=O)c2c([N+](=O)[O-])cccc21`: the LD50 is 53.3 mg/kg.

As for `CCCc1ccc(C)cc1O`, the LD50 was 730 mg/kg.

In the case of `CCOC(=O)N(C)SN(C)C(=O)O/N=C(\C)SC`, the LD50 is 226 mg/kg.

Turning to `BrCBr`, the LD50 was 108 mg/kg.

With `CN1CCC23c4c5ccc(O)c4OC2C(N=[N+]=[N-])CCC3(O)C1C5` (configuration not stated), the LD50 is 190 mg/kg.

As to `Cc1ccc(N(CC2=NCCN2)c2cccc(O)c2)cc1`, the LD50 is 1250 mg/kg.

For the compound `CC1(C)[C@H]2CC[C@](C)(O)[C@@H]1C2`, the median lethal dose (LD50) is 2050 mg/kg.

On to `CC1OC1(C)C` (configuration not stated), for which the LD50 was 2640 mg/kg.

For `Cc1cc(Sc2cc(C)c(O)c(C(C)(C)C)c2)cc(C(C)(C)C)c1O`, the LD50 was 6340 mg/kg.

As for `CCCN(CCC)C(=O)C(CCC(=O)N1CCN(CCOC(=O)Cc2c(C)n(C(=O)c3ccc(Cl)cc3)c3ccc(OC)cc23)CC1)NC(=O)c1ccccc1` (configuration not stated), the 50% lethal dose (LD50) was 315 mg/kg.

`Nc1c(Br)cc([N+](=O)[O-])cc1[N+](=O)[O-]`: the LD50 was 4100 mg/kg.

For the compound `O[C@@H](c1cc(C(F)(F)F)nc2c(Cl)cc(Cl)cc12)[C@@H]1CCCCN1`, the LD50 is 1130 mg/kg.

In the case of `COP(=S)(Oc1ccc([N+](=O)[O-])cc1)Oc1ccc([N+](=O)[O-])cc1`, the LD50 is 312 mg/kg.
